From patent US7034046B2, “NR1H4 nuclear receptor binding compounds” (Phenex Pharmaceuticals AG, priority 2001, dated 2006)
Read-outs that look alike come from different tables or passages of the source. Values belong to the molecule of their own block, whether it stands above or below them.

What was measured:
[1] = target: T1, human FXR alpha (NR1H4) (Homo sapiens, UniProt Q96RI1); assay: In vitro screening for FXR binding to coactivator TIF2 (LANCE TR-FRET); format: biochemical
T1 construct: human FXR alpha (NR1H4—(Acc. No:AF384555)) encoding amino acids 187–472; made in house; host or cells: E. coli BL21
T1 sequence (Q96RI1 187-472 isoform Q96RI1-2): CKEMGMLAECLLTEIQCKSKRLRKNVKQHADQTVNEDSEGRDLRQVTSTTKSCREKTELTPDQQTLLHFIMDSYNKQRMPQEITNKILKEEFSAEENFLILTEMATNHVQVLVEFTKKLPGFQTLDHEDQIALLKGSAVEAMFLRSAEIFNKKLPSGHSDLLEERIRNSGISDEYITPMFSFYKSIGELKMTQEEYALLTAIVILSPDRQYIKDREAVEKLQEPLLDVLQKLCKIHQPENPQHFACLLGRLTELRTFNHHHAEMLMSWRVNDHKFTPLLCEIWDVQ
T1 sequence (Q15596 548-878 partner limits assumed): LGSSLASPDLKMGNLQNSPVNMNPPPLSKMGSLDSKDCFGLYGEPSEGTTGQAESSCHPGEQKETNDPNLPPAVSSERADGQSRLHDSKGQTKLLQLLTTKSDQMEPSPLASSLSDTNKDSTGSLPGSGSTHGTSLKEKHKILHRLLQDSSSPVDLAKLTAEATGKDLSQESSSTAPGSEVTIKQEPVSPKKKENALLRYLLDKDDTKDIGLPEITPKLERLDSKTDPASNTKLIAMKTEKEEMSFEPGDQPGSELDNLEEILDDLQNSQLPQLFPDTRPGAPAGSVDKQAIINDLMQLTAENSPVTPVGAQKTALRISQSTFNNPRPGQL
Source text: For screening purposes a fragment of the open reading frame of human FXR alpha (NR1H4—(Acc. No:AF384555)) encoding amino acids 187–472 was amplified by standard RT PCR procedures (see FIGS. 2A and 2B; SEQ ID NO. 1 and 2). Starting material was total RNA derived from human liver. The resulting cDNA obtained after reverse transcription was subsequently cloned using the Gateway™ recombination technology (Invitrogen, USA) into the expression plasmid pDest15 (Invitrogen, USA). This construct was used to express a recombinant GST-FXR fusion protein in E.coli (BL21 strain). A pDEST 17 derivative clone harboring an additional sequence encoding amino acids 548–878 of human TIF2 (Acc. No: XM—011633 RefSeq) (see FIGS. 2C and 2D, SEQ ID NO. 3 and 4) was constructed using Gateway™ recombination technology (Invitrogen, USA) in order to obtain a construct which was used to express recombinant His-tagged TIF2 fragment could be expressed in E. coli. For E. coli expression of both constructs, plasmid DNA was transformed into chemically competent E. coli BL21 (Invitrogen, USA) and cells were grown to an OD600 of 0.4–0.7 before expression was induced by addition of 0.5 mM IPTG according instructions of the manufacturer (Invitrogen). After induction for 8 hours at 30° C. cells were harvested by centrifugation for 10 minutes at 5000×g. Fusion proteins were affinity purified using Glutathion sepharose (Pharmacia) or Ni-NTA Agarose (QIAGEN) according to the instructions of the respective manufacturer. Recombinant proteins were dialyzed against 20 mM Tris/HCL pH 7.9; 60 mM KCl; 5 mM MgCl2; 1 mM DTT, 0.2 mM PMSF; and 10% glycerol. The TIF2 fragment was subsequently biotinylated by addition of 40–120 μl of a biotinamidocaproate N-hydroxysuccinimide-ester (Sigma) solution (20 mg/ml in DMSO). Overhead rotating samples were incubated for two hours at room temperature. Unincorporated label was then separated using G25 Gel filtration chromatography (Pharmacia Biotech, Sweden). Protein containing fractions from the column were pooled and tested for activity in the assay as described below.
For screening of compound libraries as provided for by the methods shown below in the examples for substances which influence the FXR/Tif 2 interaction, the Perkin Elmer LANCE technology was applied. This method relies on the binding dependent energy transfer from a donor to an acceptor fluorophore attached to the binding partners of interest. For ease of handling and reduction of background from compound fluorescence LANCE technology makes use of generic fluorophore labels and time resolved detection (for detailed description See Hemmilä I, Blomberg K and Hurskainen P, Time-resolved resonance energy transfer (TR-FRET) principle in LANCE, Abstract of Papers Presented at the 3rd Annual Conference of the Society for Biomolecular Screening, Sep., California (1997)).
For screening, 20–200 ng of biotinylated Tif 2 fragment and 10–200 ng of GST-FXR fragment were combined with 0.5–2 nM LANCE Eu-(W1024) labeled anti-GST antibody (Perkin Elmer) and 0.5–2 μg of Highly fluorescent APC-labeled streptavidin (Perkin Elmer) in the presence of 50 μM of individual compounds to be screened in a total volume of 25 μl of 20 mM Tris/HCl pH 7.9; 60 mM KCl; 5 mM MgCl2; and 160 ng/μl BSA. DMSO content of the samples was kept below 4%. Samples were incubated for a minimum of 60 minutes in the dark at room temperature in FIA-Plates black 384well med. binding (Greiner).
The LANCE signal was detected by a Perkin Elmer VICTOR2V™ Multilabel Counter applying the detection parameters listed in Table 3, below. The results were visualized by plotting the ratio between the emitted light at 665 nm and at 615 nm. For every batch of recombinant proteins amount of proteins and labeling reagents giving the most sensitive detection of hits was determined individually by analysis of dose response curves for chenodeoxycholic acid.

[2] = target: T2, FXR (Homo sapiens, UniProt Q96RI1); assay: FXR-mediated transactivation, luciferase reporter in stable HEK293FXR reporter cell line; format: cell-based; conditions: HEK293FXR reporter cells, 16 hours
T2 construct: expressed in transfected cells
T2 sequence (Q96RI1 1-472 isoform Q96RI1-2): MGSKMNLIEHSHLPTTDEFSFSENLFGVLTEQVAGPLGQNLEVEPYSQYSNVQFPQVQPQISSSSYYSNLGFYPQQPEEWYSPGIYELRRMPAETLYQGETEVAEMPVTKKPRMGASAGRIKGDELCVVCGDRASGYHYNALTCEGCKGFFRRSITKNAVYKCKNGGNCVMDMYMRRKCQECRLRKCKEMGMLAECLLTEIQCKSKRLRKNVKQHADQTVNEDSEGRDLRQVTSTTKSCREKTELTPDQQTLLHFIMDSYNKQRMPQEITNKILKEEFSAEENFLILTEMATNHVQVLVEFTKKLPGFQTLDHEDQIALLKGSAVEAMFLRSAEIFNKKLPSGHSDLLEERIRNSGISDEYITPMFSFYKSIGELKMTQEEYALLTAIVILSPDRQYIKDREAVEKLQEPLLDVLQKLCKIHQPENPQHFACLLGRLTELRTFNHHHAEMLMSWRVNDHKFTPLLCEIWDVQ
Source text: A compound according to the invention (experiments shown were done with MOLSTRUCTURE LN 0000006734; see Table 1 for structural formula) can mediate transactivation of FXR-mediated transcription in a HEK293 reporter cell line. […] The full length human FXR (accession U68233) and the full length human RXRα (accession P19793) were cloned into the […]30 applying the manufacturer protocols for the GatewayTM system (Invitrogen). The FXR response elements were cloned (upper case). [NT] ID NO. 5) was obtained from the human IBAB-P promoter (Grober et al 1999, JBC 274, pp. 29749-29754). A stable clone was selected and seeded at a density of 5×10^4 cells per well in 48 well plates. […] Variations of duplicate measurements are within 20%.

[3] = average of multiple experiments, read-out: EC50 AVG

agonist of the NR1H4 human nuclear receptor [1]: active as agonist
Structure (SMILES): CC(C)c1onc(-c2c(Cl)cccc2Cl)c1COc1ccc(/C=C/C(=O)O)c(Cl)c1 [formula V]

EC50 [1, 3]: 230 nM
EFFIC AVG (average efficacy, % activity relative to CDCA control agonist) [1]: 117%
Structure (SMILES): CC(C)c1onc(-c2c(Cl)cccc2Cl)c1COc1ccc(OCC(=O)O)cc1 [LN0000006767]

EC50 [1, 3]: 720 nM
EFFIC AVG (average efficacy, % activity relative to CDCA control agonist) [1]: 108%
Structure (SMILES): COC(=O)CCc1ccc(OCc2c(-c3c(Cl)cccc3Cl)noc2C(C)C)cc1 [LN0000006764]

Luciferase reporter activity ([2]; 0.08 μM): 1630.0
Luciferase reporter activity ([2]; 0.4 μM): 2754.0
Luciferase reporter activity ([2]; 1 μM): 4600.0
Luciferase reporter activity ([2]; 2 μM): 5775.7
Luciferase reporter activity ([2]; 10 μM): 6829.3
Luciferase reporter activity ([2]; 50 μM): 13375.7
EC50 [1, 3]: 2600 nM
EFFIC AVG (average efficacy, % activity relative to CDCA control agonist) [1]: 134%
Structure (SMILES): CC(C)c1onc(-c2c(Cl)cccc2Cl)c1COc1ccc2cc(C(=O)O)ccc2c1 [LN0000000169]

agonist of the NR1H4 human nuclear receptor [1]: active as agonist
Structure (SMILES): CC(C)c1onc(-c2c(Cl)cccc2Cl)c1COc1ccc(Oc2ccc(C(=O)O)cc2)cc1 [formula III]

EC50 ([1]; read-out: EC50 at FXR (half-maximal effective concentration)): 230 nM
Structure (SMILES): CC(C)c1onc(-c2c(Cl)cccc2Cl)c1COc1ccc(OCC(=O)O)cc1 [formula (II)]

More lines, now with the values behind:

Structure (SMILES): CC(C)c1onc(-c2c(Cl)cccc2Cl)c1COc1ccc(/C=C/C(=O)O)c(Cl)c1 [LN0000006772]
EC50 [1, 3]: 50 nM
EFFIC AVG (average efficacy, % activity relative to CDCA control agonist) [1]: 100%

Structure (SMILES): CC(C)c1onc(-c2c(Cl)cccc2Cl)c1COc1ccc(CCC(=O)O)cc1 [LN0000006765]
EC50 [1, 3]: 430 nM
EFFIC AVG (average efficacy, % activity relative to CDCA control agonist) [1]: 115%

Structure (SMILES): CC(C)c1onc(-c2c(Cl)cccc2Cl)c1COc1ccc(Oc2ccc(C(=O)O)cc2)cc1 [LN0000006734]
Luciferase reporter activity ([2]; 0.08 μM): 2153.0
Luciferase reporter activity ([2]; 0.4 μM): 2991.5
Luciferase reporter activity ([2]; 1 μM): 5360.5
Luciferase reporter activity ([2]; 2 μM): 6330.5
Luciferase reporter activity ([2]; 10 μM): 8523.5
Luciferase reporter activity ([2]; 50 μM): 13309.5
EC50 ([2]; read-out: EC50 of dose-dependent transactivation of the reporter gene luciferase by FXR): ~1000 nM
EC50 [1, 3]: 600 nM
EFFIC AVG (average efficacy, % activity relative to CDCA control agonist) [1]: 85%

Structure (SMILES): CC(C)c1onc(-c2c(Cl)cccc2Cl)c1COc1ccc(CCC(=O)O)cc1 [formula IV]
agonist of the NR1H4 human nuclear receptor [1]: active as agonist
